Assay results taken from patent US8128967B2, “Polyphenol coxib combinations and methods” (Mitsui Norin Co., Ltd., priority 2005, dated 2012).
Values joined by “and” are separate entries in the source; they are usually repeats but may differ in a detail not shown here. Equal values may be shown once.

Tests used:
[1] = tested on: cisplatin-induced lung tumors; test: Experiment 1: Celecoxib with EGCg or Polyphenon E on cisplatin-induced lung tumor incidence and multiplicity; type: in vivo, A/J mice; settings: for INCIDENCE: CDDP control 0.9; for MULTIPLICITY: CDDP control 2.2
Procedure: Similarly, CDDP+Cox (number)+Polyphenon E refers to animals treated with Cisplatin, Polyphenon E, and Celecoxib. Each group of animals had 10 mice.
As control, A/J mice were treated with CDDP using standard protocols well known in the art and as further described below.
Treatment with EGCg alone (see below) was performed in the animals of group 2. […] Low-dose and high-dose effects of Celecoxib were tested in groups 3 and 4 in which the COX-2 inhibitor was mixed with the diet at a concentration of either 150 ppm or 1,500 ppm as indicated by the numbers in parentheses (see below).
The effect of EGCg in combination with high- and low-dose COX-2 inhibitor was tested in groups 5 and 6 (see below). […] For these experiments, EGCg was dissolved in drinking water at 0.1% (wt/vol) concentration.
The effect of Polyphenon E in combination with high- and low-dose COX-2 inhibitor was tested in groups 7 and 8 (see below). […] For these experiments, Polyphenon E was dissolved in drinking water at 0.17% concentration.

[2] = tested on: cisplatin-induced lung tumors; test: Experiment 2: celecoxib with EGCG or polyphenon E on cisplatin-induced lung tumor incidence and multiplicity; type: in vivo, female A/J mice; settings: 0.1% EGCG or 0.17% polyphenon E in drinking water where combined; for INCIDENCE: killed at 26 weeks, CDDP control 95%
[3] = Experiment 2: cisplatin-induced weight loss; settings: low-dose celecoxib; p<0.05
Procedure: In this study, female A/J mice (4 weeks old) were divided into seven groups: group 1, no treatment; group 2, low-dose celecoxib (150 mg/kg diet); group 3, high-dose celecoxib (1500 mg/kg diet); group 4, 0.1% EGCG+low-dose celecoxib treatment (150 mg/kg diet); group 5, 0.1% EGCG+high-dose celecoxib (1500 mg/kg diet); group 6, 0.17% polyphenon E+low-dose celecoxib (150 mg/kg diet); group 7, 0.17% polyphenon E+high-dose celecoxib (1500 mg/kg diet). All mice were treated with cisplatin (1.62 mg/kg of body weight, i.p.) once a week for 10 weeks from 7 to 16 weeks of age. Mice in groups 2, 3, 4, 5, 6, and 7 were exclusively fed experimental diet prepared by mixing celecoxib. EGCG and polyphenon E were provided in drinking water. Seven groups of mice were killed at 26 weeks after treatment.

[4] = tested on: cisplatin-induced lung tumors; settings: administered as individual compounds; Carcinogenesis 21(5):915, 2000; Proc AACR 44 #4920; cited from earlier work
[5] = celecoxib 150 ppm in diet (low dose), EGCg 0.1% or Polyphenon E 0.17% in drinking water where combined
[6] = celecoxib 1,500 ppm in diet (high dose), EGCg 0.1% or Polyphenon E 0.17% in drinking water where combined
[7] = EGCg 0.1% (wt/vol) in drinking water, no celecoxib

cisplatin-induced weight loss (in words) [3]	Compound	INCIDENCE [1, 5]	MULTIPLICITY [1, 5]	INCIDENCE [1, 6]	MULTIPLICITY [1, 6]	MULTIPLICITY (number of tumors/mouse, mean±SD in text) ([2]; high-dose celecoxib 1500 mg/kg diet, CDDP control 2.2)	MULTIPLICITY (number of tumors/mouse, mean±SD in text) ([2]; high-dose celecoxib 1500 mg/kg diet, CDDP control 2.2, listed as Celecoxib)	INCIDENCE ([2]; high-dose celecoxib 1500 mg/kg diet)	INCIDENCE ([2]; high-dose celecoxib 1500 mg/kg diet, listed as Celecoxib)	MULTIPLICITY (number of tumors/mouse, mean±SD in text) ([2]; low-dose celecoxib 150 mg/kg diet, CDDP control 2.2)	MULTIPLICITY (number of tumors/mouse, mean±SD in text) ([2]; low-dose celecoxib 150 mg/kg diet, CDDP control 2.2, listed as Celecoxib)	INCIDENCE ([2]; low-dose celecoxib 150 mg/kg diet)	INCIDENCE ([2]; low-dose celecoxib 150 mg/kg diet, listed as Celecoxib)	INCIDENCE [1, 7]	MULTIPLICITY [1, 7]	effect on tumor incidence (in words) ([1]; EGCg alone)	reduction of tumor multiplicity versus control ([1]; EGCg alone)	mice that developed tumors (tumor incidence) ([1]; EGCg alone, control 90%)	inhibition of cisplatin-induced lung tumors (in words) [4]
significantly prevented	Cc1ccc(-c2cc(C(F)(F)F)nn2-c2ccc(S(N)(=O)=O)cc2)cc1 [Cox, celecoxib]	0.9	2.1	0.91	1.91	1.7 tumors/mouse	1.7±1.2 tumors/mouse	85.7%	85.7%	2.1 tumors/mouse	2.1±1.3 tumors/mouse	95%	95%	–	–	–	–	–	–
–	(−)-epigallocatechin gallate [EGCg]	–	–	–	–	–	–	–	–	–	–	–	–	0.8	1.2	could not significantly reduce tumor incidence	45% and ~50%	80%	partially inhibits
